Measurements published in the NIST ThermoML archive (doi:10.1016/j.tca.2009.10.017).
Several values for one entry are separate records, joined by “and”; a condition that tells them apart may be missing. Equal values may be shown once.

Clc1c(Cl)c(Cl)c(Cl)c(Cl)c1Cl [hexachlorobenzene]
vapor or sublimation pressure, Crystal
Settings	isothermal thermogravimetry	non-isothermal thermogravimetry
359.7 K	0.002 kPa	–
360.2 K	0.003 kPa	–
361.6 K	0.003 kPa	–
362.5 K	0.003 kPa	–
363.6 K	0.004 kPa	–
364.4 K	0.003 kPa	–
364.5 K	0.004 kPa	–
365.4 K	0.004 kPa	–
365.5 K	0.004 kPa	–
367.4 K	0.005 kPa	–
368 K	0.005 kPa	–
369.5 K	0.005 kPa	–
370.3 K	0.005 kPa	–
371 K	0.006 kPa	–
371.5 K	0.006 kPa and 0.005 kPa	–
374.1 K	0.007 kPa	–
377.1 K	0.008 kPa	–
378.1 K	0.008 kPa	–
378.2 K	0.008 kPa	–
381.4 K	0.012 kPa and 0.011 kPa	–
382.3 K	0.012 kPa	–
382.4 K	0.011 kPa	–
383.1 K	0.012 kPa	–
384.4 K	0.014 kPa	–
385.8 K	0.015 kPa	–
386.2 K	0.015 kPa	–
386.6 K	0.013 kPa	–
388.5 K	0.016 kPa	–
392.7 K	0.021 kPa	–
393.3 K	0.024 kPa	–
396.3 K	0.026 kPa	–
396.7 K	0.026 kPa	–
397.5 K	–	0.038 kPa
399.6 K	0.031 kPa	–
400.4 K	–	0.048 kPa
400.6 K	0.038 kPa	–
400.8 K	–	0.041 kPa
401.2 K	–	0.048 kPa
402 K	–	0.047 kPa
402.8 K	–	0.057 kPa
403.2 K	0.044 kPa	–
403.6 K	–	0.05 kPa
404.1 K	–	0.061 kPa
404.4 K	0.043 kPa	–
404.5 K	–	0.051 kPa
404.9 K	–	0.058 kPa
405.3 K	–	0.053 kPa
405.8 K	–	0.063 kPa
406.1 K	–	0.052 kPa
406.5 K	–	0.06 kPa
407 K	–	0.064 kPa
407.4 K	–	0.061 kPa
407.8 K	–	0.064 kPa
408.2 K	–	0.07 kPa
408.3 K	0.057 kPa	–
408.6 K	–	0.066 kPa
409 K	–	0.078 kPa
409.4 K	–	0.071 kPa
409.8 K	–	0.079 kPa
410.2 K	–	0.076 kPa
410.6 K	–	0.073 kPa
411 K	–	0.074 kPa
411.4 K	–	0.089 kPa
411.9 K	–	0.069 kPa
412.3 K	0.066 kPa	0.078 kPa
412.7 K	–	0.084 kPa
413.2 K	–	0.083 kPa
413.6 K	–	0.085 kPa
414 K	–	0.088 kPa
414.4 K	–	0.093 kPa
414.9 K	–	0.093 kPa
415.3 K	–	0.089 kPa
415.7 K	–	0.101 kPa
416.1 K	–	0.094 kPa
416.5 K	–	0.101 kPa
417 K	–	0.101 kPa
417.4 K	–	0.11 kPa
417.8 K	–	0.118 kPa
418.2 K	–	0.112 kPa
418.6 K	–	0.113 kPa
419.1 K	–	0.129 kPa
419.5 K	–	0.131 kPa
419.9 K	–	0.118 kPa
420.3 K	–	0.134 kPa
420.7 K	–	0.134 kPa
421.1 K	–	0.128 kPa
421.5 K	–	0.131 kPa
421.9 K	–	0.144 kPa
422.3 K	–	0.144 kPa
422.8 K	–	0.143 kPa
423.2 K	–	0.159 kPa
423.6 K	–	0.146 kPa
424 K	–	0.149 kPa
424.4 K	–	0.152 kPa
424.8 K	–	0.169 kPa
425.7 K	–	0.173 kPa

Cl[C@H]1[C@H](Cl)[C@@H](Cl)[C@@H](Cl)[C@H](Cl)[C@H]1Cl [γ-1,2,3,4,5,6-hexachlorocyclohexane]
vapor or sublimation pressure
Settings	Crystal	Liquid
347.1 K, isothermal thermogravimetry	0.0017 kPa	–
349.8 K, isothermal thermogravimetry	0.0019 kPa	–
349.9 K, isothermal thermogravimetry	0.002 kPa	–
351.9 K, isothermal thermogravimetry	0.0025 kPa	–
352 K, isothermal thermogravimetry	0.0027 kPa	–
354.4 K, isothermal thermogravimetry	0.0034 kPa	–
355 K, isothermal thermogravimetry	0.0031 kPa	–
356.2 K, isothermal thermogravimetry	0.0039 kPa	–
356.4 K, isothermal thermogravimetry	0.0042 kPa	–
357.8 K, isothermal thermogravimetry	0.004 kPa	–
359.3 K, isothermal thermogravimetry	0.005 kPa	–
361.5 K, isothermal thermogravimetry	0.0052 kPa	–
363.2 K, isothermal thermogravimetry	0.006 kPa	–
364 K, isothermal thermogravimetry	0.0058 kPa	–
364.9 K, isothermal thermogravimetry	0.0082 kPa	–
367.2 K, isothermal thermogravimetry	0.0075 kPa	–
368.1 K, isothermal thermogravimetry	0.0104 kPa	–
371.1 K, isothermal thermogravimetry	0.0122 kPa	–
372.9 K, isothermal thermogravimetry	0.0122 kPa	–
374.3 K, isothermal thermogravimetry	0.0169 kPa	–
376.2 K, isothermal thermogravimetry	0.017 kPa	–
377.4 K, isothermal thermogravimetry	0.0225 kPa	–
377.5 K, non-isothermal thermogravimetry	0.024 kPa	0.024 kPa
378.3 K, non-isothermal thermogravimetry	0.026 kPa	0.026 kPa
379.1 K, non-isothermal thermogravimetry	0.027 kPa	0.027 kPa
379.3 K, isothermal thermogravimetry	0.0228 kPa	–
379.9 K, non-isothermal thermogravimetry	0.028 kPa	0.028 kPa
380.7 K, isothermal thermogravimetry	0.0294 kPa	–
380.7 K, non-isothermal thermogravimetry	0.03 kPa	0.03 kPa
381.5 K, non-isothermal thermogravimetry	0.032 kPa	0.032 kPa
381.8 K, isothermal thermogravimetry	0.0277 kPa	–
382.4 K, non-isothermal thermogravimetry	0.034 kPa	0.034 kPa
383.2 K, non-isothermal thermogravimetry	0.037 kPa	0.037 kPa
384 K, isothermal thermogravimetry	0.0365 kPa	–
384 K, non-isothermal thermogravimetry	0.038 kPa	0.038 kPa
384.8 K, non-isothermal thermogravimetry	0.041 kPa	0.041 kPa
386.4 K, non-isothermal thermogravimetry	–	0.044 kPa
387 K, non-isothermal thermogravimetry	–	0.049 kPa
387.4 K, isothermal thermogravimetry	–	0.045 kPa
387.6 K, non-isothermal thermogravimetry	–	0.044 kPa
387.9 K, non-isothermal thermogravimetry	–	0.046 kPa
388.2 K, non-isothermal thermogravimetry	–	0.044 kPa
388.6 K, non-isothermal thermogravimetry	–	0.043 kPa
389.2 K, isothermal thermogravimetry	–	0.049 kPa
389.9 K, isothermal thermogravimetry	–	0.055 kPa
390.5 K, isothermal thermogravimetry	–	0.053 kPa
390.8 K, non-isothermal thermogravimetry	–	0.051 kPa
392.1 K, isothermal thermogravimetry	–	0.06 kPa
392.1 K, non-isothermal thermogravimetry	–	0.065 kPa
393.2 K, non-isothermal thermogravimetry	–	0.06 kPa
393.5 K, isothermal thermogravimetry	–	0.07 kPa
393.6 K, isothermal thermogravimetry	–	0.065 kPa
394.1 K, non-isothermal thermogravimetry	–	0.067 kPa
395 K, non-isothermal thermogravimetry	–	0.07 kPa
395.9 K, non-isothermal thermogravimetry	–	0.079 kPa
396.6 K, isothermal thermogravimetry	–	0.08 kPa
396.7 K, non-isothermal thermogravimetry	–	0.085 kPa
397.6 K, non-isothermal thermogravimetry	–	0.074 kPa
398.5 K, non-isothermal thermogravimetry	–	0.074 kPa
398.7 K, isothermal thermogravimetry	–	0.088 kPa
398.9 K, isothermal thermogravimetry	–	0.086 kPa
399 K, isothermal thermogravimetry	–	0.093 kPa
399.9 K, isothermal thermogravimetry	–	0.093 kPa
400.2 K, non-isothermal thermogravimetry	–	0.088 kPa
400.3 K, isothermal thermogravimetry	–	0.095 kPa
401 K, non-isothermal thermogravimetry	–	0.1 kPa
401.7 K, isothermal thermogravimetry	–	0.103 kPa
401.9 K, non-isothermal thermogravimetry	–	0.109 kPa
402 K, non-isothermal thermogravimetry	–	0.095 kPa
402.8 K, non-isothermal thermogravimetry	–	0.106 kPa
403.6 K, non-isothermal thermogravimetry	–	0.104 kPa
403.7 K, isothermal thermogravimetry	–	0.114 kPa and 0.111 kPa
404.4 K, non-isothermal thermogravimetry	–	0.125 kPa
405.3 K, non-isothermal thermogravimetry	–	0.131 kPa
406.1 K, non-isothermal thermogravimetry	–	0.139 kPa
406.5 K, isothermal thermogravimetry	–	0.122 kPa
406.9 K, isothermal thermogravimetry	–	0.133 kPa
406.9 K, non-isothermal thermogravimetry	–	0.119 kPa
407.7 K, non-isothermal thermogravimetry	–	0.153 kPa
408.5 K, non-isothermal thermogravimetry	–	0.142 kPa
409.3 K, non-isothermal thermogravimetry	–	0.158 kPa
410.2 K, non-isothermal thermogravimetry	–	0.148 kPa
411 K, non-isothermal thermogravimetry	–	0.174 kPa
411.8 K, non-isothermal thermogravimetry	–	0.168 kPa
412.6 K, non-isothermal thermogravimetry	–	0.177 kPa
413.4 K, non-isothermal thermogravimetry	–	0.174 kPa
414.3 K, non-isothermal thermogravimetry	–	0.192 kPa
415.1 K, non-isothermal thermogravimetry	–	0.202 kPa
415.9 K, non-isothermal thermogravimetry	–	0.195 kPa
416.8 K, non-isothermal thermogravimetry	–	0.211 kPa
417.6 K, non-isothermal thermogravimetry	–	0.229 kPa
418.4 K, non-isothermal thermogravimetry	–	0.248 kPa
419.3 K, non-isothermal thermogravimetry	–	0.261 kPa
420.1 K, non-isothermal thermogravimetry	–	0.257 kPa
421 K, non-isothermal thermogravimetry	–	0.254 kPa
421.8 K, non-isothermal thermogravimetry	–	0.267 kPa
422.7 K, non-isothermal thermogravimetry	–	0.286 kPa
423.6 K, non-isothermal thermogravimetry	–	0.306 kPa
424.5 K, non-isothermal thermogravimetry	–	0.301 kPa
425.4 K, non-isothermal thermogravimetry	–	0.347 kPa
426.4 K, non-isothermal thermogravimetry	–	0.366 kPa
426.8 K, non-isothermal thermogravimetry	–	0.371 kPa
427.5 K, non-isothermal thermogravimetry	–	0.405 kPa
428.6 K, non-isothermal thermogravimetry	–	0.367 kPa
428.7 K, non-isothermal thermogravimetry	–	0.416 kPa
